From patent publication US11096923B2, “Pharmaceutical composition containing polymyxin B/trimethoprim based therapeutics” (University of Rochester, priority 2016, dated 2021)
“And” between values parts separate entries of the source, which are not always exact repeats. Equal entries are not always repeated.

Columns and labels:
P. aeruginosa = assay: Fractional inhibitory concentration, checkerboard MIC; format: cell-based, Pseudomonas aeruginosa; conditions: for MIC in combination: PT combined with tobramycin; for MIC: Pseudomonas aeruginosa
S. aureus = assay: as above; format: cell-based, Staphylococcus aureus; conditions: for MIC in combination: PT combined with tobramycin; for MIC: Staphylococcus aureus
P. aeruginosa PAO1 = assay: Selleck library screen in presence of sub-inhibitory polymyxin B/trimethoprim; format: cell-based, Pseudomonas aeruginosa; set-up: key: Growth (+); no growth (−)
[1] = test system: P. aeruginosa strain PA01 biofilms; assay: Biofilm susceptibility; format: cell-based, Pseudomonas aeruginosa; conditions: established PA01 biofilm, 24 hrs treatment, 32×MIC
Description: (§1) Bacterial strains used in these studies include the conventional laboratory strains Pseudomonas aeruginosa PA01 and Staphylococcus aureus UAMS-1, both of which are antibiotic susceptible and capable of forming robust biofilms. See […], Thomas J R, Nelson […]. Role of the accessory gene regulator (agr) in pathogenesis of staphylococcal osteomyelitis. Infection and immunity 1995; 63:3373-3380. Seven clinical keratitis isolates of Pseudomonas aeruginosa, were collected from the Flaum Eye Institute, Rochester N.Y. and 25 clinical isolates of Staphylococcus aureus from geographically distinct regions of the country where purchased from International Health Management Associates (IHMA; Schaumburg, Ill.). […] After 24 hrs the remaining media and non-adherent cells were removed, biofilms were suspended in 0.8% NaCl and plated to quantify surviving bacteria. […] Biofilms were treated in increasing increments ranging from 0 to 64×MIC.

[2] = test system: S. aureus UAMS-1 biofilms; assay: Biofilm susceptibility; format: cell-based, Staphylococcus aureus; conditions: established S. aureus biofilm, any concentration tested
Description: as §1, with “Ill.). For experiments requiring planktonic cultures, the indicated organism was grown overnight in Luria-Bertani broth (LB; […] Biofilms were established by inoculating individual wells of flat-bottom polystyrene plates (Falcon, Corning Life Sciences; Durham, N.C.) with overnight cultures of the indicated organism into 200 ul of fresh LB to a final concentration of 1×10^7 CFU ml^-1. Plates were placed in a 37° C.-humidified incubator for 72 hours to allow static biofilm formation. Non-adherent cells were aspirated and biofilms were washed twice with phosphate-buffered saline prior to each experiment.” for “Ill.).”

[3] = test system: planktonic P. aeruginosa cells; assay: Antimicrobial kill curves; format: cell-based, Pseudomonas aeruginosa; conditions: 2× MIC
Procedure: Overnight cultures of the indicated organism were used to inoculate (1:100 dilution) 100 ml of fresh media and grown to mid-exponential phase. […] Aliquots were taken at 1, 2, 3, 4, and 24 hours, serial diluted and plated for colony forming units.

In the case of `NC[C@H]1O[C@H](O[C@H]2[C@H](O)[C@@H](O[C@H]3O[C@H](CO)[C@@H](O)[C@H](N)[C@H]3O)[C@H](N)C[C@@H]2N)[C@H](N)C[C@@H]1O` [Tobramycin, tobramycin], the MIC in combination (P. aeruginosa; P. aeruginosa PAO1) is reported as 0.12 µg/mL and 0.24 µg/mL, the MIC in combination (P. aeruginosa; P. aeruginosa RW01) is reported as 0.12 µg/mL and the MIC in combination (P. aeruginosa; P. aeruginosa RW02) is reported as 0.06 µg/mL. For the same compound, the MIC in combination (P. aeruginosa; P. aeruginosa RW03) was 0.12 µg/mL, the MIC in combination (P. aeruginosa; P. aeruginosa RW04) was 0.12 µg/mL and the MIC in combination (P. aeruginosa; P. aeruginosa RW05) was 0.24 µg/mL. For the same compound, the MIC in combination (P. aeruginosa; P. aeruginosa RW06) was 0.12 µg/mL, the MIC in combination (P. aeruginosa; P. aeruginosa RW07) was 0.12 µg/mL and the MIC (P. aeruginosa; P. aeruginosa RW01) was 0.24 µg/mL. For the same compound, the MIC (P. aeruginosa; P. aeruginosa RW02) was 0.24 µg/mL, the MIC (P. aeruginosa; P. aeruginosa RW03) was 0.24 µg/mL and the MIC (P. aeruginosa; P. aeruginosa RW04) was 0.48 µg/mL. The MIC (P. aeruginosa; P. aeruginosa RW05) was 0.48 µg/mL, the MIC (P. aeruginosa; P. aeruginosa RW06) was 0.24 µg/mL and the MIC (P. aeruginosa; P. aeruginosa RW07) was 0.24 µg/mL. It also gave an MIC (P. aeruginosa; PAO1, P. aeruginosa PAO1) of 0.48 µg/mL, an MIC in combination (S. aureus; S. aureus 1071788) of 0.48 µg/mL and an MIC in combination (S. aureus; S. aureus 1094094) of 3.9 µg/mL. For the same compound, the MIC in combination (S. aureus; S. aureus 1094140) was 1.9 µg/mL, the MIC in combination (S. aureus; S. aureus 1094147) was 3.9 µg/mL and the MIC in combination (S. aureus; S. aureus 1094166) was 0.48 µg/mL. For the same compound, the MIC in combination (S. aureus; S. aureus 1094178) was 7.8 µg/mL, the MIC in combination (S. aureus; S. aureus 1097612) was 3.9 µg/mL and the MIC in combination (S. aureus; S. aureus 1097630) was 3.9 µg/mL. For the same compound, the MIC in combination (S. aureus; S. aureus 1101442) was 0.97 µg/mL, the MIC in combination (S. aureus; S. aureus 1103430) was 0.48 µg/mL and the MIC in combination (S. aureus; S. aureus 1110936) was 0.48 µg/mL. The MIC in combination (S. aureus; S. aureus 1111063) was 3.9 µg/mL, the MIC in combination (S. aureus; S. aureus 1122181) was 3.9 µg/mL and the MIC in combination (S. aureus; S. aureus 1122187) was 0.48 µg/mL. It also gave an MIC in combination (S. aureus; S. aureus 1122190) of 3.9 µg/mL, an MIC in combination (S. aureus; S. aureus 1122197) of 0.48 µg/mL and an MIC in combination (S. aureus; S. aureus 1125120) of 15.6 µg/mL. For the same compound, the MIC in combination (S. aureus; S. aureus 1132822) was 0.97 µg/mL, the MIC in combination (S. aureus; S. aureus 1142776) was 0.48 µg/mL and the MIC in combination (S. aureus; S. aureus 1144105) was 0.48 µg/mL. The MIC in combination (S. aureus; S. aureus UAMS-1) was 0.48 µg/mL, the MIC (S. aureus; S. aureus 1071788) was 0.97 µg/mL and the MIC (S. aureus; S. aureus 1094094) was 3.9 µg/mL. For the same compound, the MIC (S. aureus; S. aureus 1094140) was 7.8 µg/mL, the MIC (S. aureus; S. aureus 1094147) was 7.8 µg/mL and the MIC (S. aureus; S. aureus 1094166) was 1.9 µg/mL. It also gave an MIC (S. aureus; S. aureus 1094178) of 7.8 µg/mL, an MIC (S. aureus; S. aureus 1097612) of 15.6 µg/mL and an MIC (S. aureus; S. aureus 1097630) of 7.8 µg/mL. It also gave an MIC (S. aureus; S. aureus 1101442) of 3.9 µg/mL, an MIC (S. aureus; S. aureus 1103430) of 1.9 µg/mL and an MIC (S. aureus; S. aureus 1110936) of 1.9 µg/mL. For the same compound, the MIC (S. aureus; S. aureus 1111063) was 7.8 µg/mL, the MIC (S. aureus; S. aureus 1122181) was 7.8 µg/mL and the MIC (S. aureus; S. aureus 1122187) was 1.9 µg/mL. The MIC (S. aureus; S. aureus 1122190) was 7.8 µg/mL, the MIC (S. aureus; S. aureus 1122197) was 1.9 µg/mL and the MIC (S. aureus; S. aureus 1125120) was 15.6 µg/mL. The MIC (S. aureus; S. aureus 1132822) was 3.9 µg/mL, the MIC (S. aureus; S. aureus 1142776) was 1.9 µg/mL and the MIC (S. aureus; S. aureus 1144105) was 1.9 µg/mL. The MIC (S. aureus; S. aureus UAMS-1) was 1.9 µg/mL, the “P. aeruginosa growth, 5 μM” value (P. aeruginosa PAO1; drug 5 μM in presence of 0.2 μg ml^−1 polymyxin B/trimethoprim) was “−” and the “P. aeruginosa growth, 50 μM” value (P. aeruginosa PAO1; drug 50 μM in presence of 0.2 μg ml^−1 polymyxin B/trimethoprim) was “−”. The “reduction in biofilm-associated CFU” value [1] was 5 log, the “activity against biofilm-associated cells” value [2] was “neither tobramycin, polymyxin B/trimethoprim nor their combination displayed significant activity” and the “reduction in CFU at hour 4” value ([3]; 4 hours post-treatment) was 2 log. For the same compound, the “reduction in CFU at 24 hr” value ([3]; 24 hours) was 7 log.
